Data reported in US9884091B2, “Treatment of neurological diseases” (Lancaster University Business Enterprises Limited, priority 2014, dated 2018).

Columns and labels:
C57BL/6 mice given MPTP [1] = assay: Open-field motor activity task, MPTP Parkinson mouse model; format: in vivo; settings: FIG. 4; 25 nmol/kg i.p. once daily
Description: (§1) A standard model to induce Parkinson like symptoms in mice is the injection of the chemical (MPTP) (Li et al., 2009). This chemical impairs or kills neurons in the brain that produce dopamine. The mice develop motor impairments, and the dopaminergic neurons in the brain are reduced in numbers and function. The enzyme tyrosine hydroxylase (TH) is required to synthetise dopamine. A loss of TH signifies a loss of dopamine production (Harkavyi et al., 2008).
(§2) Adult male C57BL/6 mice were given the dopaminergic toxin MPTP (20 mg/kg in 0.1 mL of PBS i.p. at 2-h intervals of 4 doses MPTP; Sigma) or vehicle (PBS). This treatment selectively affects dopaminergic neurons and induces Parkinson-like symptoms in mice.
(§3) The dose of peptide tested was 25 nmol/kg body weight. The peptides were administered by a once-daily intraperitoneal injection for 8 weeks. Saline injections were administered as a control. Five animals per group were injected with a peptide or a saline control.
Open-Field Motor Activity Task
Mice (6 per group) received a session of 5 min in the empty open-field (58 cm in diameter; 35 cm high walls) with painted grey walls and grey floor. […] Motor activity was recorded by total path length and travel speed. Data were analysed using two-way ANOVA with post-hoc tests.

C57BL/6 mice given MPTP [2] = assay: Rotarod motor control test, MPTP Parkinson mouse model; format: in vivo; settings: FIG. 3; 25 nmol/kg i.p. once daily
Description: as §1, §2, §3
Rotarod Motor Control Test
The rotarod consists of a rotating pole that accelerates over time. Mice are placed on the rod, and motor skills are tested by accelerating the rotation. As the rotation increases, animals lose grip and fall on a cushion located below the rod. […] Each animal's endurance time was recorded, and the average was calculated. Data were analysed using a one-way ANOVA with post-hoc Bonferroni tests.

APP/PS1 transgenic mice [3] = assay: Beta-amyloid plaque load in cortex by immunohistochemistry, transgenic Alzheimer's disease mouse model; format: in vivo; settings: FIG. 1; 25 nmol/kg i.p. once daily for 8 weeks
Description: (§4) Transgenic Alzheimer's Disease Mouse Model
(§5) Animal models have been developed to test novel drugs. A standard model for Alzheimer's disease is transgenic mice that express human mutated genes for amyloid production that are known to induce Alzheimer's disease in humans. These APP/PS1 transgenic mice recapitulate some of the symptoms of Alzheimer's disease such as the aggregation of amyloid in the brain, memory loss and the loss of synapses (Radde et al., 2006).
(§6) The APP/PS1 mice express human Swedish mutated APP and human mutated presenilin-1 which induce Alzheimer's Disease in humans.
as §3
(§7) Brain Tissue Analysis for Amyloid Plaques and Synapse Numbers in AD Mice
(§8) Animals (5 per group) were perfused transcardially with 30 ml of ice-cold PBS and 30 ml of ice-cold 4% paraformaldehyde to postfix the brain. The brains were removed and placed in fresh 30% sucrose solution in PBS to cryoprotect tissue and cut at a thickness of 40 μm on a cryostat. Sections were chosen according to stereological rules, with the first section taken at random and every 5th section afterwards. Between 7 and 13 sections were analysed per brain. […]

APP/PS1 transgenic mice [4] = assay: Synaptic densities (synaptophysin immunohistochemistry) in cortex, transgenic Alzheimer's disease mouse model; format: in vivo; settings: FIG. 2; 25 nmol/kg i.p. once daily for 8 weeks
Description: as §4, §5, §6, §3, §7, §8

[5] = system: APP/PS1 mouse model of AD; settings: 12 months old APP/PS1 mice; cited from earlier work

Row | Substance | impairment of motor activity induced by MPTP (C57BL/6 mice given MPTP [1]) | impairment of motor skills induced by MPTP (rotarod endurance time) (C57BL/6 mice given MPTP [2]) | beta-amyloid plaque load in the cortex (% area positive for beta amyloid) (APP/PS1 transgenic mice [3]) | beta-amyloid plaque load, compared with single GIP or GLP-1 analogues (APP/PS1 transgenic mice [3]) | synapse loss in the cortex (synaptic densities) (APP/PS1 transgenic mice [4]) | amyloid plaque load [5] | synaptic plasticity in area CA1 of the hippocampus and spatial memory formation [5]
1 | YXEGTFTSDYSIYLDKQAAXEFV[Cys-40 kDAPEG]WLLAGGPSSGAPPPS[Lys-γE-C16]-NH2 (YXEGTFTSDYSIYLDKQAAXEFVXWLLAGGPSSGAPPPSX; 40 kDa PEG on Cys24; Lys γGlu-C16; C-amide; GIP/GLP1 co-agonist peptide; VARIANT 2, 20 Xaa = amino-isobutyric acid; VARIANT 24 Xaa = Cys with a covalently linked PEG molecule having an average molecular weight of 40kDa; VARIANT 40 Xaa = lysine residue connected to gamma- glutamate and C16, wherein C16 is a saturated fatty acid or palmitate) [DA2, pegylated version of DA1, position 24 modified to cysteine, γ-Glu spacer linking the C16 fatty acid] | protect mice from an impairment of motor activity | protect mice from an impairment of motor skills | reduces beta-amyloid plaque load | superior to the single GIP or GLP-1 analogues | protected from synapse loss |  | 
2 | D-Ala^2-GIP |  |  |  |  |  | much reduced | unimpaired
